#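 Interpolation was linear, between the two tested concentrations surrounding the appropriate level; five concentrations were tested over 48 hours in 96-well plates. GI50 = concentration required for 50% inhibition of growth.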 The source made the active and inactive calls. Rule as the data show it: active = GI50 up to about 1.1 µM and inactive = higher.
# Assays:
# Test in all cases: NCI tumour cell line growth inhibition, 48 h
# 786-0 = tested on: 786-0
# A498 = tested on: A498
# A549 = tested on: A549
# ACHN = tested on: ACHN
# CAKI-1 = tested on: CAKI-1
# CCRF-CEM = tested on: CCRF-CEM
# COLO 205 = tested on: COLO 205
# DLD-1 = tested on: DLD-1
# DMS-114 = tested on: DMS-114
# DMS-273 = tested on: DMS-273
# EKVX = tested on: EKVX
# HCC 2998 = tested on: HCC 2998
# HCT-116 = tested on: HCT-116
# HCT-15 = tested on: HCT-15
# HL-60 = tested on: HL-60
# HOP-18 = tested on: HOP-18
# HOP-92 = tested on: HOP-92
# HT-29 = tested on: HT-29
# IGROV-1 = tested on: IGROV-1
# K562 = tested on: K562
# KM-20L2 = tested on: KM-20L2
# KM12 = tested on: KM12
# LOX IMVI = tested on: LOX IMVI
# LXFL 529 = tested on: LXFL 529
# M14 = tested on: M14
# M19-MEL = tested on: M19-MEL
# MOLT-4 = tested on: MOLT-4
# Malme-3M = tested on: Malme-3M
# NCI-H226 = tested on: NCI-H226
# NCI-H23 = tested on: NCI-H23
# NCI-H460 = tested on: NCI-H460
# NCI-H522 = tested on: NCI-H522
# OVCAR-3 = tested on: OVCAR-3
# OVCAR-4 = tested on: OVCAR-4
# OVCAR-5 = tested on: OVCAR-5
# RXF 393 = tested on: RXF 393
# RXF 631 = tested on: RXF 631
# SF-295 = tested on: SF-295
# SF-539 = tested on: SF-539
# SK-MEL-28 = tested on: SK-MEL-28
# SK-MEL-2 = tested on: SK-MEL-2
# SK-MEL-5 = tested on: SK-MEL-5
# SK-OV-3 = tested on: SK-OV-3
# SNB-19 = tested on: SNB-19
# SNB-75 = tested on: SNB-75
# SW-620 = tested on: SW-620
# TK-10 = tested on: TK-10
# UACC-257 = tested on: UACC-257
# UACC-62 = tested on: UACC-62
# UO-31 = tested on: UO-31
# HOP-62 = tested on: HOP-62
# OVCAR-8 = tested on: OVCAR-8
# SF-268 = tested on: SF-268
# SN12C = tested on: SN12C
# SNB-78 = tested on: SNB-78
# SR = tested on: SR
# U-251 = tested on: U-251
smiles,measurement,setting,value
CC(C)c1cccc(C(C)C)c1NC(=O)C(=O)Cc1nc2ccc([N+](=O)[O-])cc2nc1O,GI50,786-0,> 100 µM (inactive)
same,GI50,A498,58.5 µM (inactive)
same,GI50,A549,53.6 µM (inactive)
same,GI50,ACHN,54.5 µM (inactive)
same,GI50,CAKI-1,75.3 µM (inactive)
same,GI50,CCRF-CEM,18.6 µM (inactive)
same,GI50,COLO 205,41.8 µM (inactive)
same,GI50,DLD-1,> 100 µM (inactive)
same,GI50,DMS-114,10.5 µM (inactive)
same,GI50,DMS-273,44.4 µM (inactive)
same,GI50,EKVX,44.2 µM (inactive)
same,GI50,HCC 2998,39.6 µM (inactive)
same,GI50,HCT-116,39.2 µM (inactive)
same,GI50,HCT-15,9.31 µM
same,GI50,HL-60,> 100 µM (inactive)
same,GI50,HOP-18,> 100 µM (inactive)
same,GI50,HOP-92,50.6 µM (inactive)
same,GI50,HT-29,> 100 µM (inactive)
same,GI50,IGROV-1,> 100 µM (inactive)
same,GI50,K562,30.2 µM (inactive)
same,GI50,KM-20L2,20.1 µM (inactive)
same,GI50,KM12,13.5 µM (inactive)
same,GI50,LOX IMVI,23.2 µM (inactive)
same,GI50,LXFL 529,28.2 µM (inactive)
same,GI50,M14,28.1 µM (inactive)
same,GI50,M19-MEL,80.9 µM (inactive)
same,GI50,MOLT-4,74.1 µM (inactive)
same,GI50,Malme-3M,> 100 µM (inactive)
same,GI50,NCI-H226,> 100 µM (inactive)
same,GI50,NCI-H23,31.9 µM (inactive)
same,GI50,NCI-H460,70.1 µM (inactive)
same,GI50,NCI-H522,6.35 µM (inactive)
same,GI50,OVCAR-3,> 100 µM (inactive)
same,GI50,OVCAR-4,64.3 µM (inactive)
same,GI50,OVCAR-5,> 100 µM (inactive)
same,GI50,RXF 393,> 100 µM (inactive)
same,GI50,RXF 631,40.8 µM (inactive)
same,GI50,SF-295,> 100 µM (inactive)
same,GI50,SF-539,78.3 µM (inactive)
same,GI50,SK-MEL-28,86.1 µM (inactive)
same,GI50,SK-MEL-2,61 µM (inactive)
same,GI50,SK-MEL-5,> 10 µM (inactive)
same,GI50,SK-OV-3,> 100 µM (inactive)
same,GI50,SNB-19,> 100 µM (inactive)
same,GI50,SNB-75,> 100 µM (inactive)
same,GI50,SW-620,71.6 µM (inactive)
same,GI50,TK-10,> 100 µM (inactive)
same,GI50,UACC-257,69.2 µM (inactive)
same,GI50,UACC-62,24.5 µM (inactive)
same,GI50,UO-31,> 100 µM (inactive)
Cc1ccc2nc3c(C)cc(=O)cc-3sc2c1,GI50,786-0,18.7 µM (inactive)
same,GI50,A549,20.1 µM (inactive)
same,GI50,ACHN,17.7 µM (inactive)
same,GI50,CAKI-1,19.3 µM (inactive)
same,GI50,CCRF-CEM,10.5 µM (inactive)
same,GI50,COLO 205,27.6 µM (inactive)
same,GI50,DLD-1,30.3 µM (inactive)
same,GI50,DMS-114,17.5 µM (inactive)
same,GI50,DMS-273,27.9 µM (inactive)
same,GI50,EKVX,28.2 µM (inactive)
same,GI50,HCC 2998,26.9 µM (inactive)
same,GI50,HCT-116,17.3 µM (inactive)
same,GI50,HCT-15,16 µM
same,GI50,HL-60,2.45 µM (inactive)
same,GI50,HOP-18,56.6 µM (inactive)
same,GI50,HOP-62,27.5 µM (inactive)
same,GI50,HOP-92,34.2 µM (inactive)
same,GI50,HT-29,36.2 µM (inactive)
same,GI50,IGROV-1,31.8 µM (inactive)
same,GI50,K562,12.6 µM (inactive)
same,GI50,KM-20L2,43.5 µM (inactive)
same,GI50,KM12,22.9 µM (inactive)
same,GI50,LXFL 529,17.9 µM (inactive)
same,GI50,M14,19.6 µM (inactive)
same,GI50,M19-MEL,15.9 µM (inactive)
same,GI50,MOLT-4,12.6 µM (inactive)
same,GI50,Malme-3M,27.3 µM (inactive)
same,GI50,NCI-H226,24.8 µM (inactive)
same,GI50,NCI-H23,20.8 µM (inactive)
same,GI50,NCI-H460,23.4 µM (inactive)
same,GI50,NCI-H522,17.8 µM (inactive)
same,GI50,OVCAR-3,22 µM (inactive)
same,GI50,OVCAR-4,16.7 µM (inactive)
same,GI50,OVCAR-5,27.9 µM (inactive)
same,GI50,OVCAR-8,22.8 µM (inactive)
same,GI50,RXF 631,31.2 µM (inactive)
same,GI50,SF-268,25.6 µM (inactive)
same,GI50,SF-295,31.5 µM (inactive)
same,GI50,SF-539,18.9 µM (inactive)
same,GI50,SK-MEL-28,25.9 µM (inactive)
same,GI50,SK-MEL-2,20 µM (inactive)
same,GI50,SK-MEL-5,15.5 µM (inactive)
same,GI50,SK-OV-3,59.6 µM (inactive)
same,GI50,SN12C,21.3 µM (inactive)
same,GI50,SNB-19,38.1 µM (inactive)
same,GI50,SNB-75,32.7 µM (inactive)
same,GI50,SNB-78,32.5 µM (inactive)
same,GI50,SR,19.1 µM (inactive)
same,GI50,SW-620,17.2 µM (inactive)
same,GI50,TK-10,22.7 µM (inactive)
same,GI50,U-251,31.8 µM (inactive)
same,GI50,UACC-257,20.2 µM (inactive)
same,GI50,UACC-62,14.1 µM (inactive)
same,GI50,UO-31,32 µM (inactive)

# Reference: ChEMBL document CHEMBL1201862, “PubChem BioAssay data set” (2004)
